{
  "source": "patent US10648035B2",
  "about": "“Methods and compositions for diagnosing and treating gastric cancer” (THE JOHNS HOPKINS UNIVERSITY, priority 2012, dated 2020)",
  "key": {"Barx1 expression in AGS": {"tested_on": "Barx1 expression in AGS", "experiment": "Barx1 mRNA re-expression in AGS after 5-Aza-dC treatment", "assay_type": "cell-based", "conditions": "AGS cells after treatment"}, "[1]": {"tested_on": "claudin-11 mRNA expression in AGS gastric cancer cells", "experiment": "Claudin-11 mRNA re-expression in AGS cells after demethylating treatment (qRT-PCR)", "assay_type": "cell-based", "design": "claudin-11 mRNA expression, ratio of treated vs. untreated cells: dose or concentration left out as unconfirmed", "text": "FIG. 23. Claudin-11 mRNA re-expression in AGS gastric cancer cells after treatment with 5-Aza-dC. AGS is a gastric cancer cell line manifesting hypermethylation of the claudin-11 promoter in conjunction with absent claudin-11 mRNA expression (FIG. 17). Total RNAs from AGS cells before and after 5-aza-2-deoxycytidine treatment were subjected to quantitative real-time RT-PCR analysis. The Y-axis represents the expression ratio of 5-aza-dC-treated vs. untreated cells. […] This restoration of claudin-11 expression after 5-Aza-dC treatment supports our hypothesis that claudin-11 is silenced by promoter hypermethylation in GC cells.\n[…] Total RNAs extracted before vs. after treatment were subjected to qRT-PCR for CLDN11."}},
  "data": [
    {"smiles": "Nc1ncn([C@H]2C[C@H](O)[C@@H](CO)O2)c(=O)n1", "note": "[5-Aza-dC, 5-aza-2-deoxycytidine]", "values": [
      {"measurement": "Barx1 mRNA re-expression", "setting": "Barx1 expression in AGS", "value": "restoration of Barx1 expression"},
      {"measurement": "Barx1 mRNA re-expression", "setting": "Barx1 expression in AGS; listed as 5-AzaC", "value": "BARX mRNA re-expression"},
      {"measurement": "CLDN11 mRNA re-expression", "setting": "[1]; 1 μM, varying time intervals", "value": "CLDN11 mRNA became more re-expressed"},
      {"measurement": "claudin-11 mRNA expression, ratio of treated vs. untreated cells", "setting": "[1]; first 72 hrs. of treatment", "value": "time-dependent increase in claudin-11 mRNA expression"}
    ]}
  ]
}
